Data published in patent publication US8754073B2, “Substituted piperazino-dihydrothienopyrimidines” (Boehringer Ingelheim International GmbH, priority 2007, dated 2014).

Target: PDE4B (Homo sapiens, UniProt Q07343)
Test: Scintillation Proximity Assay (SPA) of PDE4B enzyme activity ([H3]-cAMP cleavage)
Format: biochemical
Settings: test substance 1 μM
Experimental: The inhibitions (in %) at 1 μM of the individual Example substances are given in the following Table of Examples and were determined as follows:
The Scintillation Proximity Assay (SPA) (GE Healthcare, No. TRKQ7090) was carried out by using the different affinities of cyclic 3′-5′-adenosinemonophosphate (cAMP, low affinity) and linear 5′-adenosinemonophosphate (AMP, high affinity) for yttrium silicate scintillator beads. The cAMP specific phosphodiesterase (PDE) PDE4B cleaves the 3′-phosphoester bond of tritium-labelled [H3]-cAMP to form [H3]-5′-AMP. This [H3]-AMP accumulates on the scintillator beads because of its higher affinity for them and causes scintillation events (flashes of light) which are measured in a Wallac Microbeta Scintillation Counter.
The experiment starts with a one-hour incubation of [H3]-cAMP with the PDE4B enzyme in assay buffer at 30° C., in each case once with the Example substance to be tested (in a concentration of 1 μM) and once without the Example substance to be tested.
After this incubation, the reaction is stopped by the addition of the beads. The beads have an opportunity to settle in the next 45 minutes, then the measurement is carried out in the Scintillation Counter. If the substance is capable of inhibiting the enzymatic activity of the PDE4B, less [H3]-AMP is produced during the incubation phase and fewer scintillation events can be measured.

[1] = one-hour incubation of [H3]-cAMP with PDE4B enzyme at 30° C.
[2] = one-hour incubation with [H3]-cAMP at 30° C.

Chain of PDE4B (Q07343 whole entry, species assumed): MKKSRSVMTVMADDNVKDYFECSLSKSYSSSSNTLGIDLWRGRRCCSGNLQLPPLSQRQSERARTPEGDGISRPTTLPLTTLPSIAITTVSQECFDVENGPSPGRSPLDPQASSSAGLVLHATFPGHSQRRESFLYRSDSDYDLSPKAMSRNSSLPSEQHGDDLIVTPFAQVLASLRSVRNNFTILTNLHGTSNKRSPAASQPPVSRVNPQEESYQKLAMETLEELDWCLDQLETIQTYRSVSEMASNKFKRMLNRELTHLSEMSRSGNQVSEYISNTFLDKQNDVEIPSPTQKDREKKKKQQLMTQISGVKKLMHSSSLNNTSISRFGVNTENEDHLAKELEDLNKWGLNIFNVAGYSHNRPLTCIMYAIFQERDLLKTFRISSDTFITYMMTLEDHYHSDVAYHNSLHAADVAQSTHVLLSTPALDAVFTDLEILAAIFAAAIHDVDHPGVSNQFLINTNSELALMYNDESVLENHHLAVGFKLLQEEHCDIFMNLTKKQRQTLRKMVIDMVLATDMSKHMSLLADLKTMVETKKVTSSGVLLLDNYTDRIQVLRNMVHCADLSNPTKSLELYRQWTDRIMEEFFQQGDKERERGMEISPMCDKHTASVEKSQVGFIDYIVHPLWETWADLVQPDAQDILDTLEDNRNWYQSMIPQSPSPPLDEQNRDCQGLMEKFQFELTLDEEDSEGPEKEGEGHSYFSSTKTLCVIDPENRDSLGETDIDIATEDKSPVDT

Row | SMILES | inhibition at 1 µM [1] [%] | inhibition at 1 µM [2] [%]
1 | [O-][S+]1CCc2nc(N3CCC(c4ccc(Br)cc4)CC3)nc(NC3(CO)CC3)c21 (stereo not drawn) [Example 92, (1-{2-[4-(4-Bromophenyl)-Piperidin-1-Yl]-5-Oxo-6,7-Dihydro-5H-5λ^4-Thieno[3,2-d]Pyrimidin-4-Ylamino}-Cyclopropyl)-Methanol] | 94 | 
2 | COCC1(c2ccc(Cl)cc2)CCN(c2nc3c(c(N[C@H]4CCC(=O)N(C)C4)n2)[S+]([O-])CC3)CC1 (stereo partly drawn) [Example 260, 5-{2-[4-(4-chlorophenyl)-4-methoxymethylpiperidin-1-yl]-5-oxo-6,7-dihydro-5H-5μ^4-thieno[3,2-d]pyrimidin-4-ylamino}-1-methylpiperidin-2-one] |  | 96
3 | CN1C[C@@H](Nc2nc(N3CCC(C#N)(c4ccc(F)cc4)CC3)nc3c2[S+]([O-])CC3)CCC1=O (stereo partly drawn) [Example 294] |  | 88
4 | CC(C)c1noc(C2CCN(c3nc4c(c(NC5(CO)CC5)n3)[S+]([O-])CC4)CC2)n1 (stereo not drawn) [Example 113] | 92 | 
5 | CN(C(=O)c1ccc(C2CCN(c3nc4c(c(NC5CCOCC5)n3)[S+]([O-])CC4)CC2)cc1)C1CC1 (stereo not drawn) [Example 229, N-cyclopropyl-N-methyl-4-{1-[5-oxo-4-(tetrahydropyran-4-ylamino)-6,7-dihydro-5H-5λ^4-thieno[3,2-d]pyrimidin-2-yl]-piperidin-4-yl}-benzamide] |  | 94
6 | CN(CC1(c2ccccc2)CCN(c2nc3c(c(NC4(CO)CC4)n2)[S+]([O-])CC3)CC1)S(C)(=O)=O (stereo not drawn) [Example 330] |  | 92
7 | [O-][S+]1CCc2nc(N3CCC(c4cccc(Cl)c4)CC3)nc(NC3(CO)CC3)c21 (stereo not drawn) [Example 39] | 96 | 
8 | [O-][S+]1CCc2nc(N3CCC(Oc4ccccn4)CC3)nc(NC3CCOCC3)c21 (stereo not drawn) [Example 173] |  | 95
9 | N#Cc1ccc(C2CCN(c3nc4c(c(NC5CCOCC5)n3)[S+]([O-])CC4)CC2)cc1 (stereo not drawn) [Example 64] | 96 | 
10 | COC1(c2cc(F)cc(F)c2)CCN(c2nc3c(c(N[C@H]4CCC(=O)N(C)C4)n2)[S+]([O-])CC3)CC1 (stereo partly drawn) [Example 273, 5-{2-[4-(3,5-difluorophenyl)-4-methoxypiperidin-1-yl]-5-oxo-6,7-dihydro-5H-5λ^4-thieno[3,2-d]pyrimidin-4-ylamino}-1-methylpiperidin-2-one] |  | 94
11 | CN1C[C@@H](Nc2nc(N3CCC(Oc4ccc(Cl)cc4)CC3)nc3c2[S+]([O-])CC3)CCC1=O (stereo partly drawn) [Example 265] |  | 89
12 | [O-][S+]1CCc2nc(N3CCC(c4nc(-c5cccnc5)no4)CC3)nc(Nc3cccc(F)c3)c21 (stereo not drawn) [Example 146] | 96 | 

Results, then the molecule that gave them:

Row | inhibition at 1 µM [1] [%] | inhibition at 1 µM [2] [%] | SMILES
13 | 93 |  | [O-][S+]1CCc2nc(N3CCC(c4ccc(F)cc4)CC3)nc(NC3CCOCC3)c21 (stereo not drawn) [Example 10]
14 | 96 |  | [O-][S+]1CCc2nc(N3CCC(O)(c4cc(F)cc(F)c4)CC3)nc(Nc3cccc(F)c3)c21 (stereo not drawn) [Example 77]
15 | 97 |  | CN1C[C@@H](Nc2nc(N3CCC(c4cccc(Cl)c4)CC3)nc3c2[S+]([O-])CC3)CCC1=O (stereo partly drawn) [Example 54]
16 | 95 |  | [O-][S+]1CCc2nc(N3CCC(c4c[nH]cn4)CC3)nc(Nc3cccc(F)c3)c21 (stereo not drawn) [Example 72]
17 |  | 93 | CN(C(=O)c1ccc(C2CCN(c3nc4c(c(NC5CCOCC5)n3)[S+]([O-])CC4)CC2)cc1)C1CCOCC1 (stereo not drawn) [Example 224]
18 | 95 |  | [O-][S+]1CCc2nc(N3CCC(c4noc5cc(F)ccc45)CC3)nc(Nc3cccc(F)c3)c21 (stereo not drawn) [Example 136]
19 |  | 95 | [O-][S+]1CCc2nc(N3CCC(c4nc(-c5ccccc5)c(-c5ccccc5)o4)CC3)nc(NC3(CO)CC3)c21 (stereo not drawn) [Example 280]
20 |  | 95 | CC(C)c1ccccc1OC1CCN(c2nc3c(c(N[C@H]4CCC(=O)N(C)C4)n2)[S+]([O-])CC3)CC1 (stereo partly drawn) [Example 266]
21 |  | 82 | [O-][S+]1CCc2nc(N3CCC(c4nc5ncncc5[nH]4)CC3)nc(NC3CCOCC3)c21 (stereo not drawn) [Example 208]
